The values that follow come from patent publication US20200179369A1, “TREATMENT OF DIABETIC NEPHROPATHY” (TAKEDA GMBH, priority 2015, published 2020).

The assay relates to uninephrectomized db/db mice. Kind of assay: Diabetic nephropathy in uninephrectomized db/db mice, 8 week treatment starting 4 weeks after the uninephrectomy. The assay is classed as in vivo. The following applies: 8 weeks starting 4 weeks after uninephrectomy. Here is the method: Male 5-week-old BKS.Cg-+Lepr^db/+Lepr^db (db/db) mice were purchased from CLEA Japan, Inc. All mice were fed with a standard diet (CE-2, CLEA Japan, Inc.) and tap water ad libitum.
Compound A was obtained from Takeda GmbH, Konstanz, Germany. Irbesartan was purchased from LKT Laboratories, Inc (USA).
In 6 week old male db/db mice an unilateral nephrectomy was performed. Under the anesthesia with isoflurane inhalation, the right kidney was removed from the mice. After 4-week recovery period, blood samples were obtained by the puncture of facial vein and blood level of glycosylated hemoglobin (GHb) was measured by automated HPLC-based GHb analyzer (HLC-723 G8, TOSOH, Japan). After the separation of plasma samples by centrifugation, also plasma levels of glucose (PG) were measured by Autoanalyzer 7180 (Hitachi, Japan). Urine samples were collected for a 8 h time-period using metabolic cages and urine creatinine level was measured by Autoanalyzer 7180. After desaltation of urine samples with PD MiniTrap G-25 column (GE healthcare, UK), urinary levels of albumin were measured by ELISA, and urinary albumin/creatinine ratio (UACR) was calculated.
Compound A (1, 3 and 10 mg/kg, QD), roflumilast (3 mg/kg, QD) and irbesartan (50 mg/kg, QD) were suspended in 0.5% methyl cellulose solution and orally administered to mice for 8 weeks starting 4 weeks after the uninephrectomy.
At the end of the 8 weeks once daily administration blood, plasma and urine samples were obtained according to the same methods as described above. GHb, PG, urinary creatinine and albumin were measured and UACR was calculated. Body weight (BW) was measured every week during the treatment.
For evaluation of the effects of Compound A, statistical differences between vehicle- and Compound A treated groups were analyzed with two-tailed Williams' test for PG and BW and two-tailed Shirley-Williams' test for UACR and GHb. The P-values less than 0.05 were considered statistically significant in two-tailed Williams' test or Shirley-Williams' test.
For roflumilast and irbesartan, statistical differences between vehicle- and compounds-treated groups were analyzed with Student's t-test for GHb, PG and BW and Welch test for UACR. The P-values less than 0.05 were considered statistically significant in Student's t-test and Welch test.

Structures are written as SMILES.

`CCOc1cc2c(cc1OC)C(c1ccc(=O)n(C)c1)=N[C@@H]1CC[C@@H](O)C[C@H]21` [Compound A, 5-((2R,4aR,10bR)-9-Ethoxy-2-hydroxy-8-methoxy-1,2,3,4,4a,10b-hexahydro-phenanthridin-6-yl)1-methyl-1H-pyridin-2-one]: the “effect on increase of urinary albumin/creatinine ratio (UACR)” value (1 mg/kg QD oral) was “significantly suppressed the increase of UACR”. Also, where the note is “3 mg/kg QD oral”, the “effect on increase of urinary albumin/creatinine ratio (UACR)” value is on record as “almost completely inhibited the increase of UACR”. Also, where the note is “10 mg/kg QD oral”, the “effect on body weight” value was “slightly, but statistically significantly, suppressed the increase of body weight” and the “effect on increase of urinary albumin/creatinine ratio (UACR)” value is on record as “almost completely inhibited the increase of UACR”. In addition, for the setting “1, 3 and 10 mg/kg QD oral”, the “effect on blood level of glycosylated hemoglobin (GHb)” value is “significantly inhibited the elevation of GHb and PG in a dose-dependent manner”; the “effect on plasma levels of glucose (PG)” value was “significantly inhibited the elevation of GHb and PG in a dose-dependent manner”.
